Test results from US9464064B2, “HCV helicase inhibitors and methods of use thereof” (University of Kansas, priority 2011, dated 2016).
Starred links: 1 amine or outer side, 2 acyl side, 3 side chain; linkers in the order of their positions; H or OH if unused. Positions of bridges follow the written chain, without caps; N, C: chain ends. Non-standard residues stand in square brackets, D forms with d. Residues, ends and D or L forms follow the SMILES beside them. Chains are numbered I, II in the order given. Actinocin(9to1) = Cc1c2oc3c(C)ccc(C(=O)[*:1])c3nc-2c(C(=O)[*:2])c(N)c1=O; NMeV = CN[C@H](C(=O)O)C(C)C; Sar = CNCC(=O)O

Target: T1, HCV NS3 helicase NS3h_1b(con1) (Hepatitis C virus genotype 1b, UniProt Q9WMX2)
T1 construct: truncated C-terminally His-tagged NS3 proteins lacking the N-terminal protease, called NS3h; His-tag (C); made in house
T1 sequence (Q9WMX2 1192-1657): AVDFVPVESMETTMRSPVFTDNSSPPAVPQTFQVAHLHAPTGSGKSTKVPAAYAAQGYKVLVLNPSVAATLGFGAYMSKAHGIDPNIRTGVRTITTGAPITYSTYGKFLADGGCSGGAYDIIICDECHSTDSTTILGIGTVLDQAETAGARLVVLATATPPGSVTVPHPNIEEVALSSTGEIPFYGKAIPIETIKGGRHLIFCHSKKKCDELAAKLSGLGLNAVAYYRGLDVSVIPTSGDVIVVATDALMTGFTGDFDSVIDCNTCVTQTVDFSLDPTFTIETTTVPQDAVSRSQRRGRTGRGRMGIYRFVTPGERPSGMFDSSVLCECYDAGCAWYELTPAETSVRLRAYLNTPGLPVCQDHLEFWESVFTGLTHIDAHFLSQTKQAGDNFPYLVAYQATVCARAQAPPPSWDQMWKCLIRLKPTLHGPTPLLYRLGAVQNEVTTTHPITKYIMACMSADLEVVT
Experiment: MBHA screen of NCI mechanistic set library at 20 μM (percent inhibition, compound interference)
Format: biochemical
Conditions: compounds at 20 μM; for Inh. (%) (Inhibition): calculated from Equation 1
Summary of the method: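 Molecular beacon-based DNA unwinding assay; compounds screened at 20 μM in triplicate, with DMSO-only negative and 500 nM dT20 positive controls. Fluorescence (ex 643/em 670 nm) was read before and 30 min after adding ATP to 1 mM. Percent inhibition came from the change relative to DMSO controls; interference from pre-ATP fluorescence versus DMSO controls.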

[1] = assay interference calculated with Equation 2 (fluorescence vs DMSO-only controls before ATP)
[2] = MBHA with DNA substrate, assay interference calculated with Equation 2

| SMILES | Inh. (%) (Inhibition) (MBHA with a DNA substrate) | Int.* (Ratio) (Interference) [1] | Int.* (Ratio) (Interference) [2] | Inh. (%) (Inhibition) (MBHA with DNA substrate) |
| --- | --- | --- | --- | --- |
| Nc1ccc2nc3ccc(=O)cc-3n(-c3ccccc3)c2c1 [Compound 31702] |  |  | 0.92 | −9.7 |
| CCCCOc1ccc(NC(N)=Nc2ccc(Cl)cc2)cc1 [Compound 78365] |  |  | 0.98 | 4.7 |
| COC1CC(OC2CCC3(C=O)C4CCC5(C)C(C6=CC(=O)OC6)CCC5(O)C4CCC3(O)C2)OC(C)C1OC1OC(COC2OC(CO)C(O)C(O)C2O)C(O)C(O)C1O (stereo not drawn) [Compound 7530] | −19.7 | 0.98 |  |  |
| COc1c(O[C@@H]2O[C@H](CO)[C@@H](O)[C@H](O)[C@H]2O)cc2c(c1OC)-c1ccc(OC)c(=O)cc1[C@@H](NC(C)=O)CC2 [Compound 32992] | −28.7 | 1.04 |  |  |
| C[N+](C)(C)CC1CCCC1=O.[I-] (stereo not drawn) [Compound 621889] |  |  | 1.08 | 12.2 |
| Cc1c2oc3c(C)ccc(C(=O)N[C@@H]4C(=O)N[C@H](C(C)C)C(=O)N5CCC[C@H]5C(=O)N(C)CC(=O)N(C)[C@@H](C(C)C)C(=O)O[C@@H]4C)c3nc-2c(C(=O)N[C@@H]2C(=O)N[C@H](C(C)C)C(=O)N3CCC[C@H]3C(=O)N(C)CC(=O)N(C)[C@@H](C(C)C)C(=O)O[C@@H]2C)c(N)c1=O [Compound 3053] (I: T[dV]P[Sar][NMeV] / II: T[dV]P[Sar][NMeV]; ester I:1-I:C, II:1-II:C; linker I:N-II:N via Actinocin(9to1)) |  |  | 0.55 | 67.5 |
| CN(C)CCCN1c2ccc3ccccc3c2Sc2cccc(Cl)c21 [Compound 24113] | 11.0 | 0.81 |  |  |
| CC[C@]1(O)C[C@H]2CN(CCc3c([nH]c4ccccc34)[C@@](C(=O)OC)(c3cc4c(cc3OC)N(C=O)[C@H]3[C@@](O)(C(=O)OC)[C@H](OC(C)=O)[C@]5(CC)C=CCN6CC[C@]43[C@@H]65)C2)C1 [Compound 67574] |  |  | 0.96 | −16.1 |
| Fc1cccc(F)c1C1SCc2nc3ccccc3n21 (stereo not drawn) [Compound 625487] |  |  | 1.01 | −0.1 |
| CCCNC1=C(C)C(=O)C2=C(C1=O)[C@H](COC(N)=O)[C@]1(OC)[C@@H]3N[C@@H]3CN21 [Compound 123115] | −25.7 | 0.96 |  |  |
| COc1cc([C@H]2c3cc4c(cc3C[C@@H]3COC(=O)[C@H]32)OCO4)cc(OC)c1OC [Compound 403148] |  |  | 0.94 | 16.8 |
| N#CC(NCc1cccc(CNC(C#N)c2ccccc2)c1)c1ccccc1 (stereo not drawn) [Compound 681730] |  |  | 0.88 | −2.0 |
| Cl.Nc1nc(N)c2ncn(-c3ccccc3)c2n1 [Compound 29603] | −5.0 | 0.99 |  |  |
| Cc1ccc2ccc3ccc(C)nc3c2n1 [Compound 4280] |  |  | 1.01 | −9.2 |
| CSC1SC[C@H]2C(=O)N(C)[C@@H](C(C)C)C(=O)OC[C@@H](NC(=O)c3cnc4ccccc4n3)C(=O)N[C@@H](C)C(=O)N(C)[C@@H]1C(=O)N(C)[C@@H](C(C)C)C(=O)OC[C@@H](NC(=O)c1cnc3ccccc3n1)C(=O)N[C@@H](C)C(=O)N2C (stereo partly drawn) [Compound 526417] |  |  | 0.86 | 55.2 |
| Cl.Cl.Cl.Cl.NCCCNCCCCNCCCN [Compound 69852] |  |  | 1.06 | −8.6 |
| O=C1N[C@@H]2C(=C[C@H](O)[C@@H](O)[C@H]2O)c2cc3c(cc21)OCO3 [Compound 349155] |  |  | 0.98 | 4.1 |
| CCC(=O)OC1CCn2c1nc1c2C(=O)C(C)=C(N2CC2)C1=O (stereo not drawn) [Compound 651079] |  |  | 1.05 | −16.7 |
| CC1=C(O)c2ccccc2C(=O)C1=O [Compound 11897] |  |  | 1.05 | 2.5 |
| COc1ccc(C[C@@H]2NC[C@@H](O)[C@@H]2OC(C)=O)cc1.Cl [Compound 147340] | −5.2 | 1.01 |  |  |

More lines, now with the values ahead:

| Inh. (%) (Inhibition) (MBHA with a DNA substrate) | Int.* (Ratio) (Interference) [1] | Int.* (Ratio) (Interference) [2] | Inh. (%) (Inhibition) (MBHA with DNA substrate) | SMILES |
| --- | --- | --- | --- | --- |
| 7.0 | 0.98 |  |  | CCS(=O)(=O)O.CN(C)C(=O)c1cccc(COc2ccc(N3C(N)=NC(N)=NC3(C)C)cc2Cl)c1 [Compound 139105] |
|  |  | 1.13 | 1.1 | NC(=O)c1csc(C2OC(CO)C(O)C2O)n1 (stereo not drawn) [Compound 286193] |
|  |  | 1.05 | −13.3 | CN(C)CCN1C(=O)c2cccc3cc(N)cc(c23)C1=O [Compound 308847] |
|  |  | 0.81 | 15.6 | C=CC(=O)N1C/C(=C\c2ccccc2)C(=O)/C(=C/c2ccccc2)C1 [Compound 632841] |
|  |  | 0.81 | −15.3 | CN(C)c1ccc(/C=c2/sc3nc(=O)c(-c4ccccc4NC(=O)C(F)(F)F)nn3c2=O)cc1 [Compound 623095] |
| −31.9 | 0.93 |  |  | CCc1cccc(CC)c1NC(=O)C(C#N)C1=C(Cl)C(=O)c2ccccc2C1=O (stereo not drawn) [Compound 634503] |
|  |  | 0.89 | 14.2 | Cc1ccc(C)c2c(N=Nc3ccccc3[N+](=O)[O-])c(O)[nH]c12 [Compound 118732] |
|  |  | 1.08 | 22.2 | COC(=O)NC1C(C)OC(OC2C/C=C(/C)C3C=CC4C(OC5CC(OC6CC(O)C(OC7CC(O)C(OC)C(C)O7)C(C)O6)C(O)C(C)O5)C(C)CC(C)C4C3(C)/C(O)=C3\C(=O)OC4(CC(C)C(CO)=CC4/C=C\2C)C3=O)CC1(C)[N+](=O)[O-] (stereo not drawn) [Compound 363182] |
|  |  | 0.89 | −8.3 | C=C1C(=O)C2=CC1CCC(=O)C1(C)CCC(OC(C)=O)C(C)(C)C1CC2O (stereo not drawn) [Compound 302979] |
|  |  | 1.07 | −2.1 | O=C1C2=Nc3ccccc3C(O)N2c2ccccc21 (stereo not drawn) [Compound 292147] |
|  |  | 1.00 | −9.8 | NC1CCCCC1N.[Cl-].[Cl-].[Pt+2] (stereo not drawn) [Compound 265459] |
| −21.3 | 1.06 |  |  | CCOC(=O)C1=C(C)NC(=S)NC1c1ccccc1 (stereo not drawn) [Compound 643910] |
|  |  | 1.01 | 13.3 | COC(=O)[C@@]12OC[C@]34[C@H]([C@@H](O)[C@@H]1O)[C@@]1(C)CC(=O)C(O)=C(C)[C@@H]1C[C@H]3OC(=O)[C@H](OC(=O)C=C(C)C)[C@@H]24 [Compound 172924] |
|  |  | 0.90 | 19.2 | Br.CCN(CC)CC(C)(C)C(=O)/C=C/c1ccc(C)cc1 [Compound 382766] |
| 12.0 | 1.08 |  |  | CCC1=C(C[C@H]2NCCc3cc(OC)c(OC)cc32)C[C@H]2c3cc(OC)c(OC)cc3CCN2C1 [Compound 129414] |
|  |  | 0.93 | 14.5 | C=C(Cl)C(Cl)(CBr)CCC(Br)C(C)(C)Cl (stereo not drawn) [Compound 662825] |
|  |  | 0.22 | 26.2 | C[n+]1c(-c2ccc(/C=C/C=N/NC(=O)c3ccc(C(=O)N/N=C/C=C/c4ccc(-c5cn6ccccc6[n+]5C)cc4)cc3)cc2)cn2ccccc21.Cc1ccc(S(=O)(=O)O)cc1 [Compound 603169] |
|  |  | 1.18 | −13.2 | C=C(C)[C@@H]1CC[C@]2(C)CC[C@]3(C)[C@H](CC[C@@H]4[C@@]5(C)CC[C@H](O)C(C)(C)[C@@H]5CC[C@]43C)[C@@H]12 [Compound 90487] |
| 11.0 | 0.96 |  |  | CCCCCCCCCCSCC(CO)NC(=O)/C=C/c1c(C)[nH]c(=O)[nH]c1=O (stereo not drawn) [Compound 265473] |
|  |  | 0.90 | 14.6 | CCOC(=O)/C(=C/c1ccc(N(C)C)cc1)N(CC)CC [Compound 643774] |
| −5.7 | 1.20 |  |  | O=c1[nH]c2ccc(O)cc2o1 [Compound 603719] |
|  |  | 0.94 | −8.7 | COc1ccc2nc(NC(=O)C(=O)CC(=O)c3ccc(Cl)cc3)sc2c1 [Compound 623059] |
|  |  | 0.93 | −16.2 | CCCCn1c2c(n(CCCC)c1=S)-c1c(n(CCCC)c(=S)n1CCCC)SSSS2 [Compound 700582] |
|  |  | 0.81 | −13.3 | CC1=CC(=C(c2ccc(N)cc2)c2ccc(N)cc2)C=CC1=N.Cl [Compound 93739] |
| 7.3 | 0.45 |  |  | CCN(CC)Cc1cc(N=Nc2c(O)ccc3c(N=Nc4ccc(O)c(CN(CC)CC)c4)c(O)ccc23)ccc1O.Cl [Compound 359463] |
|  |  | 0.67 | 34.3 | COc1cc2c[n+](C)c3c4cc5c(cc4ccc3c2cc1OC)OCO5 [Compound 146397] |
|  |  | 0.92 | 25.4 | Cc1ccc(S(=O)(=O)ON=C2CC(c3ccccc3)N(C)C(c3ccccc3)C2)cc1 (stereo not drawn) [Compound 351306] |
|  |  | 1.00 | 1.4 | Cc1ccc2[nH]c(O)c(N=Nc3ccccc3[N+](=O)[O-])c2c1 [Compound 117915] |
